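These data come from cells grown in 96-well plates and exposed to compound for 48 hours at five concentrations. At the GI50, growth is halved. The concentration for full growth arrest is given as TGI.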 A value given as a limit tells only on which side of the number the result lay.

For twelve compounds, TGI and GI50 results are on record in PubChem BioAssay (NCI).

Some test systems named below: SK-OV-3 ovarian; HOP-92 NSCLC; M19-MEL melanoma; HCT-15 colon; SR leukemia; DLD-1 colon; SW-620 colon; IGROV1 ovarian; XF 498 CNS; LXFL 529 NSCLC; MCF7 breast; DU-145 prostate.
Assay in all cases: NCI tumour cell line growth inhibition, 48 h

Regarding `CSc1ccc(/C=C2\CN(C)C/C(=C\c3ccc(SC)cc3)C2=O)cc1`, the TGI with SK-OV-3 ovarian is 88.1 µM; in the experiment on HOP-92 NSCLC it was more than 100 µM; in the experiment on M19-MEL melanoma, more than 100 µM; with HCT-15 colon, more than 100 µM; with SR leukemia it was 41.4 µM; in the experiment with DLD-1 colon, more than 100 µM. Moreover, the TGI in the experiment with SW-620 colon was more than 100 µM; with IGROV1 ovarian, more than 100 µM; in the experiment on XF 498 CNS, 58 µM; in the experiment with LXFL 529 NSCLC, 35.7 µM.
As to `O=C(N/C(=C\c1cc(Cl)ccc1Cl)c1nc2[nH]c(=S)[nH]c(=O)c2[nH]1)c1ccccc1`, the TGI is more than 100 µM with SK-OV-3 ovarian; more than 75.1 µM in the experiment on HOP-92 NSCLC; more than 68.6 µM with M19-MEL melanoma; more than 51 µM in the experiment with HCT-15 colon; more than 100 µM in the experiment with SR leukemia; more than 64.7 µM with DLD-1 colon. For the same compound, the TGI was 36.5 µM with SW-620 colon, more than 70.6 µM with IGROV1 ovarian, more than 100 µM with XF 498 CNS and 45.2 µM with LXFL 529 NSCLC.
Consider `Nc1ccc(C(=O)N/C(=C\c2ccc3c(c2)OCO3)c2nc3[nH]c(=S)[nH]c(=O)c3[nH]2)cc1`, for which the TGI with SK-OV-3 ovarian, in the experiment on HOP-92 NSCLC, in the experiment with M19-MEL melanoma, in the experiment on HCT-15 colon, in the experiment with SR leukemia and in the experiment on DLD-1 colon was more than 100 µM each time. Also, the TGI with SW-620 colon, with IGROV1 ovarian, with XF 498 CNS and in the experiment with LXFL 529 NSCLC was more than 100 µM throughout.
Take `CC(C)=CCCc1c(C)ccc2c1C(=O)C(=O)C(C(C)C)=C2`: the TGI in the experiment on SK-OV-3 ovarian is more than 22 µM; with HOP-92 NSCLC, 6.43 µM; with M19-MEL melanoma it was 7.87 µM; in the experiment on HCT-15 colon it was 7.14 µM; in the experiment with SR leukemia it was 14.9 µM; in the experiment with DLD-1 colon it was 6.51 µM. Further, the TGI in the experiment on SW-620 colon was 7.05 µM; in the experiment on IGROV1 ovarian, more than 22 µM; with XF 498 CNS, 7.15 µM; with LXFL 529 NSCLC it was 6.65 µM.
Take `O=C1c2ccccc2C(=O)c2sc(Nc3cccc(Cl)c3)nc21`: the TGI with SK-OV-3 ovarian came out at 10.9 µM; in the experiment with HOP-92 NSCLC it was 9.1 µM; in the experiment with M19-MEL melanoma it was 0.89 µM; with HCT-15 colon it was 3.69 µM; in the experiment on SR leukemia, 5.47 µM; in the experiment with DLD-1 colon, 3.95 µM. For the same compound, the TGI with MCF7 breast is 2.46 µM; in the experiment on SW-620 colon it was 2.26 µM; in the experiment with IGROV1 ovarian it was 5.9 µM; in the experiment on XF 498 CNS, 3.18 µM; in the experiment on LXFL 529 NSCLC, 2.86 µM. Further, the GI50 in the experiment with HOP-92 NSCLC was 1.82 µM; in the experiment with MCF7 breast, 0.596 µM.
Consider `O=c1cc(-c2cccc(O)c2)[nH]c2cc3c(cc12)OCO3`, for which the TGI in the experiment on SK-OV-3 ovarian was 8.27 µM; in the experiment with M19-MEL melanoma, 95.9 µM; with HCT-15 colon it was more than 100 µM; with DLD-1 colon, more than 100 µM; with MCF7 breast, more than 100 µM; with SW-620 colon, more than 100 µM. Moreover, the TGI in the experiment with IGROV1 ovarian was more than 100 µM; in the experiment with XF 498 CNS, more than 100 µM; in the experiment with LXFL 529 NSCLC, more than 100 µM; in the experiment with DU-145 prostate it was 0.883 µM.
For `COc1ccc2nc3cc(Cl)ccc3c(Sc3ccccc3[N+](=O)[O-])c2c1`, the TGI with SK-OV-3 ovarian, with HOP-92 NSCLC, with M19-MEL melanoma, in the experiment with HCT-15 colon, in the experiment with SR leukemia and with DLD-1 colon was more than 100 µM throughout. Moreover, the TGI was more than 100 µM in the experiment with SW-620 colon, more than 100 µM with IGROV1 ovarian, 97.8 µM in the experiment on XF 498 CNS and more than 100 µM in the experiment on LXFL 529 NSCLC.
Consider `COc1ccc(/C=C\c2cc(OC)c3c(c2)OCO3)c(O)c1O`, for which the TGI in the experiment with SK-OV-3 ovarian was more than 77 µM; in the experiment on HOP-92 NSCLC, 16.1 µM; in the experiment on M19-MEL melanoma, 31.1 µM; in the experiment with HCT-15 colon, 59.8 µM; with SR leukemia, more than 41.5 µM; with DLD-1 colon it was 23 µM. The TGI amounted to 26.1 µM with SW-620 colon, 20.9 µM with IGROV1 ovarian, 26.6 µM in the experiment with XF 498 CNS and 3.74 µM with LXFL 529 NSCLC.
Take `O=C1C2=C(SCCS2)C(=O)c2ccccc21`: the TGI in the experiment on SK-OV-3 ovarian came out at 3.12 µM; in the experiment with HOP-92 NSCLC, 3.05 µM; with M19-MEL melanoma it was 0.616 µM; in the experiment on HCT-15 colon it was 3.08 µM; in the experiment on SR leukemia it was 5.33 µM; with DLD-1 colon, 3.53 µM. Moreover, the TGI came out at 3.68 µM in the experiment on SW-620 colon, 3.17 µM with IGROV1 ovarian, 3.01 µM in the experiment on XF 498 CNS and 3.02 µM in the experiment with LXFL 529 NSCLC.
Turning to `CCN(CC)CC(C(=O)Nc1c(C)cccc1C)/C(C)=N\NC(=O)C[N+](C)(C)C` (centres undefined), the TGI in the experiment with SK-OV-3 ovarian, in the experiment on HOP-92 NSCLC, with M19-MEL melanoma, with HCT-15 colon, in the experiment on SR leukemia and in the experiment with DLD-1 colon was more than 100 µM throughout. The TGI in the experiment on SW-620 colon, in the experiment with IGROV1 ovarian, with XF 498 CNS and with LXFL 529 NSCLC was more than 100 µM each time.
On to `O=C(CSC(=S)N1CCCCC1)Nc1nc2c(s1)CCCC2`, for which the TGI was more than 100 µM with SK-OV-3 ovarian; 94.3 µM in the experiment on HOP-92 NSCLC; more than 100 µM in the experiment with M19-MEL melanoma; more than 100 µM in the experiment on HCT-15 colon; more than 100 µM in the experiment with SR leukemia; more than 100 µM in the experiment on DLD-1 colon. Also, the TGI in the experiment on SW-620 colon was more than 100 µM; in the experiment with IGROV1 ovarian it was more than 100 µM; in the experiment on XF 498 CNS it was 71.3 µM; in the experiment on LXFL 529 NSCLC, more than 100 µM.
As to `NS(=O)(=O)c1ccccc1C(=O)N/N=C(\c1nc2ccc([N+](=O)[O-])cc2[nH]c1=O)C(O)c1ccc([N+](=O)[O-])cc1` (centres undefined), the TGI in the experiment with SK-OV-3 ovarian, in the experiment with HOP-92 NSCLC, with M19-MEL melanoma, with HCT-15 colon, with SR leukemia and with DLD-1 colon was more than 100 µM throughout. Further, the TGI in the experiment with SW-620 colon, in the experiment with IGROV1 ovarian, in the experiment with XF 498 CNS, in the experiment with LXFL 529 NSCLC and in the experiment on DU-145 prostate was more than 100 µM throughout.
